pIC50: −log10 of the molar value.
Columns and labels:
CYP1A1 [1] = target: T1, CYP1A1 (Homo sapiens, UniProt P04798); assay: In-vitro CYP450 1A1 enzyme inhibition in Saccharosomes; assay type: biochemical; details: for inhibition at 20 min, 10 μM: human, Saccharosomes containing CYP1A1, pH 7.4, probe ethoxyresorufin (5 μM), % inhibition of CYP1A1 in Saccharosomes at 10 μM; for inhibition at 20 min, 10 μM / % inhibition of CYP1A1 in Saccharosomes at 10 μM: 10 μM test compound, 5 μM ethoxyresorufin
T1 construct: host or cells: yeast microsomes (Saccharosomes)
T1 sequence (P04798 1-512): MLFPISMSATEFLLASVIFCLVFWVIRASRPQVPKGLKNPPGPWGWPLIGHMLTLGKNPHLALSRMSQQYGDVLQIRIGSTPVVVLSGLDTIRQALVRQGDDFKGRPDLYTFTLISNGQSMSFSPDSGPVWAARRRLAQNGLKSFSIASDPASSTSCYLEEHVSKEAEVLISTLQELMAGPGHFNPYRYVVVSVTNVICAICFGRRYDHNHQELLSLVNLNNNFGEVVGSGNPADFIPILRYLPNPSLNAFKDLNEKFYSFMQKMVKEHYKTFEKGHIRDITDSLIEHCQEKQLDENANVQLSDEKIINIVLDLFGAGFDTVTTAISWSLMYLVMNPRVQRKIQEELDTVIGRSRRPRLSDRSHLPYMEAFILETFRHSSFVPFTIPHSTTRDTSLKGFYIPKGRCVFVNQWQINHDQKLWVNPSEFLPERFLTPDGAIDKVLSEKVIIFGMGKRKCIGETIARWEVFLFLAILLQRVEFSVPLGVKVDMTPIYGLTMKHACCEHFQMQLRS
Description: Example 23. In-vitro CYP450 1A1 enzyme inhibition in Saccharosomes™: The screening method utilizes 384-well microplates to rapidly ascertain relative percentage inhibition of CYP1A1 by a library of compounds. Each reaction was performed in black, clear-bottomed 384-well microplates. A reaction volume of 50 μl comprised of 0.5 pmol of the cytochrome P450 CYP1A1 (Saccharosomes), 5 μM of ethoxyresorufin substrate (which contributes 0.05% DMSO to the well), 10 μM of potential inhibitor test article (which contributes 0.5% DMSO to the well), A P450 reductase NADPH regenerating system (1.3 mM NADP+, 3.3 mM glucose-6-0.02 units phosphate and glucose-6-Phosphate dehydrogenase), potassium phosphate buffer (final well concentration 100 mM, pH 7.4) and water. Very small quantities of magnesium chloride and sodium citrate are added to the NADPH regenerating system, in line with standard published protocols. The potential inhibitor (test article) was pre-incubated with CYP1A1 of at least 20 minutes at 30° C. After this period, the remainder of the reagents required in the assay was added to initiate the process. The reaction mixture was incubated for another 20 minutes at 30° C. The reaction was stopped by adding an 80% acetonitrile, 20% 0.5 M Tris solution. The reactions were monitored using the Biotek Synergy HT plate reader by measuring the endpoint reaction at Excitation 530/(25 bandwidth) & Emission 590/(20 bandwidth) using a gain/sensitivity setting of 60. The mean of the quadruplicates of the negative control (solvent inactivated CYP1A1) was deducted from the mean of potential inhibitor (test article) samples. The percentage was then derived relative to the mean of the wells without inhibitor.
(§1) Example 25. IC50 determination for best compound against CYP1A1, CYP1B1 and other CYPs in Saccharosomes. Compounds were serially diluted to six different concentrations with 10% DMSO in a Sero-Well white microplate. The experiment was performed in a similar way as described above in examples 23 and 24.

CYP1A1 [2] = target: T1, CYP1A1; assay: CYP1A1 inhibition in HEK293 cells transfected with pcDNA3.1/CYP1A1 (live cells); assay type: cell-based; details: for inhibition at 10 μM: human, HEK293 cells transfected with pcDNA3.1/CYP1A1 (live cells), probe EROD (5 μM), % inhibition of CYP1A1 in HEK293 cells at 10 μM; for inhibition at 10 μM / % inhibition of CYP1A1 in HEK293 cells at 10 μM: 5 μM EROD
Description: Example 26. In-vitro CYP450 inhibition in HEK293 cells transfected with pcDNA3.1/CYP1A1 against 5 μM EROD. […] The HEK293 cells used here was procured from ‘European Collection of Authenticated Cell Cultures’ (catalog number. ECACC 85120602).

CYP1B1 = target: T2, CYP1B1 (Homo sapiens, UniProt Q16678); assay: In-vitro CYP450 1B1 enzyme inhibition in Saccharosomes; assay type: biochemical; set-up: purchased CYP Design Ltd; host or cells: yeast microsomes (Saccharosomes); details: 10 μM test compound, 7-ethoxyresorufin; for inhibition at 10 μM: human, Saccharosomes (yeast-derived) with recombinant CYP1B1, probe 7-ethoxyresorufin (5 μl of 0.1 mM), % inhibition of CYP1B1 in Saccharosomes at 10 μM
T2 sequence (Q16678 1-543): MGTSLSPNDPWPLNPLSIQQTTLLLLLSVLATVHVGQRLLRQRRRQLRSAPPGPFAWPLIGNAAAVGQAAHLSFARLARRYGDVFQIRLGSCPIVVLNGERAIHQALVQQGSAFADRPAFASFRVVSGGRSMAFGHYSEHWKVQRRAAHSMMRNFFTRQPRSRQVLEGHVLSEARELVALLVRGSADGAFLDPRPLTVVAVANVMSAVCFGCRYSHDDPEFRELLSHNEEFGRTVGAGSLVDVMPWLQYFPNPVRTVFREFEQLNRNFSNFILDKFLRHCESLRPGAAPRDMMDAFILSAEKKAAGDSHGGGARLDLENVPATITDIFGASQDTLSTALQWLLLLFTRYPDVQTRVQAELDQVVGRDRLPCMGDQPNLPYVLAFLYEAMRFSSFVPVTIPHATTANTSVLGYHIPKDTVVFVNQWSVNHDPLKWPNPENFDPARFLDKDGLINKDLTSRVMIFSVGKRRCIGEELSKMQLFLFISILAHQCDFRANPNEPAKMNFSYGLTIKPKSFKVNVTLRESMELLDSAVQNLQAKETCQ
Description: Example 24. In-vitro CYP450 1B1 enzyme inhibition in Saccharosomes™: Regenerating system consists of: 5 μl Solution A (183 mg of NADP++183 mg of glucose-6-phosphate+654 μl of 1.0 M magnesium chloride solution+9.15 ml of sterile ultra-pure water)+1 μl Solution B (250 Units of glucose-6-phosphate dehydrogenase+6.25 ml of 5 mM sodium citrate; mixed in a tube and made up to 10 ml with sterile ultra-pure water)+39 μl 0.2 M Kpi (0.6 ml of 1.0M K2HPO4+9.4 ml of 1.0 M KH2PO4 were mixed and made up to 50 ml with sterile ultra-pure water)+5 μl potential inhibitory compound.
as §1

Row | SMILES | inhibition at 20 min, 10 μM (CYP1A1 [1]) | inhibition at 10 μM (CYP1A1 [2]) | melting point | inhibition at 10 μM (CYP1B1) | other results
1 | O=c1cc(-c2ccccc2)oc2c1ccc1ccccc12 [Alpha-naphthoflavone, reference compound] | 97% | 30% |  |  | pIC50 (CYP1A1 [1]): 7.05; IC50 (CYP1A1 [2]): > 10000 nM; % inhibition of CYP1B1 in Saccharosomes at 10 μM (CYP1B1): 98%
2 | COc1c2occc2c(OC)c2c(=O)cc(C)oc12 [Compound 1, Khellin, reference compound] | 88% |  |  |  | % inhibition of CYP1A1 in Saccharosomes at 10 μM (CYP1A1 [1]): 88.3%
3 | COc1c(C(C)=O)c(O)c(OC)c2occc12 [Compound 2, 1-(6-hydroxy-4,7-dimethoxybenzofuran-5-yl)ethanone] |  | > 80% |  |  | 
4 | COc1c(C(=O)/C=C/c2ccc(Br)cc2)c(O)c(OC)c2occc12 [Compound 3, 3-(4,7-dimethoxy-6-hydroxybenzofuran-5-yl)-1-(4-bromophenyl)-3-oxopropene] |  |  | 135 to 137 °C |  | 
5 | COc1c(C(=O)/C=C/c2ccc(Cl)cc2)c(O)c(OC)c2occc12 [Compound 4, 3-(4,7-dimethoxy-6-hydroxybenzofuran-5-yl)-1-(4-chlorophenyl)-3-oxopropene] | 77.5% | > 80% | 162 to 164 °C |  | % inhibition of CYP1A1 in HEK293 cells at 10 μM (CYP1A1 [2]): 85.7%
6 | COc1c(C(=O)/C=C/c2ccc(F)c(Br)c2)c(O)c(OC)c2occc12 [Compound 5, 3-(4,7-dimethoxy-6-hydroxybenzofuran-5-yl)-1-(3-bromo-4-fluorophenyl)-3-oxopropene] | > 80% | > 80% | 186 to 188 °C |  | % inhibition of CYP1A1 in Saccharosomes at 10 μM (CYP1A1 [1]): 83.1%; % inhibition of CYP1A1 in HEK293 cells at 10 μM (CYP1A1 [2]): 82.3%
7 | COc1c(C(=O)/C=C/c2ccc(F)cc2F)c(O)c(OC)c2occc12 [Compound 7, 3-(4,7-dimethoxy-6-hydroxybenzofuran-5-yl)-1-(2,4-difluorophenyl)-3-oxopropene] |  | > 80% | 154 to 156 °C |  | 
8 | COc1ccc(/C=C/C(=O)c2c(O)c(OC)c3occc3c2OC)cc1 [Compound 9, 3-(4,7-dimethoxy-6-hydroxybenzofuran-5-yl)-1-(4-methoxyphenyl)-3-oxopropene] | 28.9% | 55.7% | 198 to 199 °C |  | 
9 | COc1c(C(=O)/C=C/c2c(Cl)cccc2Cl)c(O)c(OC)c2occc12 [Compound 10, 3-(4,7-dimethoxy-6-hydroxybenzofuran-5-yl)-1-(2,6-dichlorophenyl)-3-oxopropene] | 19.6% | 58.8% | 298 to 299 °C |  | 
10 | COc1cccc(/C=C/C(=O)c2c(O)c(OC)c3occc3c2OC)c1OC [Compound 13, 3-(4,7-dimethoxy-6-hydroxybenzofuran-5-yl)-1-(2,3 dimethoxyphenyl)-3-oxopropene] |  |  | 260 to 262 °C |  | 
11 | COc1c(C(=O)/C=C/c2ccccc2)c(O)c(OC)c2occc12 [Compound 16, 3-(4,7-dimethoxy-6-hydroxybenzofuran-5-yl)-1-(phenyl)-3-oxopropene] | > 80% | > 80% |  |  | 
12 | COc1ccc(/C=C/C(=O)c2c(O)c(OC)c3occc3c2OC)cc1Br [Compound 17, 3-(4,7-dimethoxy-6-hydroxybenzofuran-5-yl)-1-(3-bromo-4-methoxyphenyl)-3-oxopropene] | 37% | 74% |  |  | 
13 | COc1cc(OC)c(OC)cc1/C=C/C(=O)c1c(O)c(OC)c2occc2c1OC [Compound 18, 3-(4,7-dimethoxy-6-hydroxybenzofuran-5-yl)-1-(2,4,5-trimethoxyphenyl)-3-oxopropene] | > 80% | > 80% |  |  | % inhibition of CYP1A1 in Saccharosomes at 10 μM (CYP1A1 [1]): 92.2%; % inhibition of CYP1A1 in HEK293 cells at 10 μM (CYP1A1 [2]): 96.8%
14 | COc1c(C(=O)/C=C/c2ccc3c(c2)OCO3)c(O)c(OC)c2occc12 [Compound 19, 3-(benzo[d][1,3]dioxol-5-yl)-1-(6-hydroxy-4,7-dimethoxybenzofuran-5-yl)prop-2-en-1-one] | 48.4% |  |  | 41.6% | 
15 | COc1c(C(=O)/C=C/c2ccsc2)c(O)c(OC)c2occc12 [Compound 20, 1-(6-hydroxy-4,7-dimethoxybenzofuran-5-yl)-3-(thiophen-3-yl)prop-2-en-1-one] | > 80% | 79.4% |  | > 80% | % inhibition of CYP1A1 in Saccharosomes at 10 μM (CYP1A1 [1]): 95.1%; % inhibition of CYP1B1 in Saccharosomes at 10 μM (CYP1B1; 10 µM): 84.0%
16 | COc1c(C(=O)/C=C/c2ccc(Cl)cc2Cl)c(O)c(OC)c2occc12 [Compound 21, 3-(2,4-dichlorophenyl)-1-(6-hydroxy-4,7-dimethoxybenzofuran-5-yl)prop-2-en-1-one] | > 80% | 71.4% |  | 51.4% | % inhibition of CYP1A1 in Saccharosomes at 10 μM (CYP1A1 [1]): 80.2%
17 | COc1c(C(=O)/C=C/c2ccc3ccccc3c2)c(O)c(OC)c2occc12 [Compound 22, 1-(6-hydroxy-4,7-dimethoxybenzofuran-5-yl)-3-(naphthalen-2-yl)prop-2-en-1-one] | 49.7% |  |  | 25.8% | 
18 | COc1c(C(=O)/C=C/c2ccccc2F)c(O)c(OC)c2occc12 [Compound 23, 3-(2-fluorophenyl)-1-(6-hydroxy-4,7-dimethoxybenzofuran-5-yl)prop-2-en-1-one] | 41.1% |  |  | 34.2% | 
19 | COc1c(C(=O)/C=C/c2ccc3cc4ccccc4cc3c2)c(O)c(OC)c2occc12 [Compound 24, 3-(anthracen-2-yl)-1-(6-hydroxy-4,7-dimethoxybenzofuran-5-yl)prop-2-en-1-one] | 43.4% |  |  | 19.2% | 

— patent publication US20210284618A1, “FURANOCHALCONES AS INHIBITORS OF CYP1A1, CYP1A2 AND CYP1B1 FOR CANCER CHEMOPREVENTION” (Council of Scientific & Industrial Research, priority 2016, published 2021)
